Reference: patent US20240270811A1, “Glycosylated Neuropeptide Derivative, Pharmaceutical Composition, Intranasal/Nasal Drop Formulation, and Use of Pharmaceutical Composition” (Tokyo University of Science Foundation, priority 2021, published 2024)
Where no end group is shown, it is not given here. The star is where a group is joined. X1 = CC(=O)N[C@@H]1[C@@H](O)[C@H](O[C@@H]2O[C@H](CO)[C@@H](O[C@@H]3O[C@H](CO[C@H]4O[C@H](CO)[C@@H](O)[C@H](O)[C@@H]4O[C@@H]4O[C@H](CO)[C@@H](O[C@@H]5O[C@H](CO[C@]6(C(=O)O)C[C@H](O)[C@@H](NC(C)=O)[C@H]([C@H](O)[C@H](O)CO)O6)[C@H](O)[C@H](O)[C@H]5O)[C@H](O)[C@H]4NC(C)=O)[C@@H](O)[C@H](O[C@H]4O[C@H](CO)[C@@H](O)[C@H](O)[C@@H]4O[C@@H]4O[C@H](CO)[C@@H](O[C@@H]5O[C@H](CO[C@]6(C(=O)O)C[C@H](O)[C@@H](NC(C)=O)[C@H]([C@H](O)[C@H](O)CO)O6)[C@H](O)[C@H](O)[C@H]5O)[C@H](O)[C@H]4NC(C)=O)[C@@H]3O)[C@H](O)[C@H]2NC(C)=O)[C@@H](CO)O[C@H]1NC(=O)C*

Assay: Amount of migration to brain quantified by GLP-2 ELISA
Type: in vivo
Details: in vivo, inhaled or intranasal, 6.0 nmol/mouse intranasal, brain isolated 20 minutes after administration, read-out: amount of GLP-2 derivative in brain
Protocol: Mice were intranasally administered with 16% DMSO or GLP-2 derivatives (6.0 nmol/mouse). The brain was isolated 20 minutes after the administration, and homogenized with BioMasher II (Nippi, Tokyo, Japan). A sample was prepared by performing centrifugal separation by 1000×g for 15 minutes and collecting a supernatant. The amount of a GLP-2 derivative in the sample was quantified using a GLP-2 ELISA kit. Specifically, a cleaning process including filling each well of a measurement plate with a cleaning fluid (350 μL) and suctioning the cleaning fluid with a pipette was performed three times. Subsequently, a labeled antigen solution (40 μL), a sample (25 μL) and a specific antibody solution (50 μL) were added in this order to the well and mixed. The measurement plate was tightly sealed and allowed to stand for 18 hours at 4° C. The cleaning process was performed three times, and a SA-HRP solution (100 μL) was added and allowed to permeate for 1.5 hours at room temperature (60 rpm). […] Finally, an enzyme reaction stop solution (100 μL) was added and an absorbance at 490 nm was measured with ARVO (PerkinElmer Japan Co., Ltd., Kanagawa, Japan) to calculate the concentration of a GLP-2 derivative.

Question: Which tissue level at time molar at 20 min does the source give for “FFLIPKGRRRRRRRRGGHADGSFSDEMNTILDNLAARDFINWLIQTKITDC(X1)-OH [PAS-CPP-GLP-2 (11-sugar)]” here?
Answer: 0.0106 ± 0.000998 nmol/g
